# Reference: US20260224588A1, “BENZODIAZEPINONE-DERIVED INHIBITORS OF EGFR AND HER2” (The Research Foundation for the State University of New York, priority 2023, published 2026)
# Experiments:
# [1] = molecular target: T1, RSK4(Kin.Dom.2-C-terminal) (Homo sapiens, UniProt Q9UK32); assay: KINOMEscan; format: binding; settings: 1 μM of compound 4; read-out: POC
# T1 construct: RSK4(Kin.Dom.2-C-terminal); purchased Eurofins DiscoverX (KINOMEscan service)
# MLK2 = MLK2 (Homo sapiens, UniProt Q02779); assay: KINOMEscan; format: binding; settings: 1 μM of compound 4; read-out: POC
# EGFR WT = molecular target: T2, EGFR WT (Homo sapiens, UniProt P00533); assay: Time-dependent kinase inhibition assay (Sox-based substrate); format: biochemical
# T2 construct: EGFR WT, cytoplasmic domain (669-1210), GST-tagged, Carna; purchased Carna 08-115
# Protocol: (§1) Time-dependent Kinase Inhibition Assays. Biochemical assays were performed with commercially available EGFR WT, cytoplasmic domain (669-1210), GST-tagged, Carna (Cat #/Lot #: 08-115/21CBS-0127H), EGFR [T790M/L858R] and EGFR [L858R], cytoplasmic domain (669-1210), GST-tagged, Carna (Cat #/Lot #: 08-510/12CBS-0765M). […] BSA was not included in this experiment to prevent interference with irreversible inhibitor characterization via off-target binding. All reactions were run for 240 minutes at 30° C. Time-dependent fluorescence from the Sox-based substrate was monitored in PerkinElmer ProxiPlate-384 Plus, white shallow well microplates (Cat. #6008280) Biotek Synergy Neo 2 microplate reader with excitation (360 nm) and emission (485 nm) wavelengths. 2 was dosed between 0 and 10 μM in 24-point curves with 1.5-fold dilutions. Fluorescence, determined with identical reactions but lacking purified enzyme or crude cell lysate was subtracted from the total fluorescence signal for each time point, with both determined in duplicate, to obtain corrected relative fluorescence units (RFU). Corrected RFU values then were plotted vs. time and the reaction velocity for the first ~40 min (initial reaction rates) were determined from the slope using GraphPad Prism (La Jolla, CA) with units of RFU/min.
# EGFR [T790M/L858R] = molecular target: T3, EGFR [T790M/L858R] (Homo sapiens, UniProt P00533, L858R/T790M); assay: as above; format: biochemical
# T3 construct: EGFR [T790M/L858R] and EGFR [L858R], cytoplasmic domain (669-1210), GST-tagged, Carna; GST; purchased Carna 08-510
# Protocol: as §1
# EGFR(L858R + T790M) = molecular target: T4, EGFR(L858R + T790M) (Homo sapiens, UniProt P00533, L858R/T790M); assay: KINOMEscan; format: binding; settings: 1 μM of compound 4; read-out: POC
# T4 construct: purchased Eurofins DiscoverX (KINOMEscan service)
# [2] = molecular target: T5, ABL1(H396P)-nonphosphorylated (Homo sapiens, UniProt P00519, H396P); assay: KINOMEscan; format: binding; settings: 1 μM of compound 4; read-out: POC
# T5 construct: purchased Eurofins DiscoverX Corporation
# HPK1 = molecular target: T6, HPK1 (Homo sapiens, UniProt Q92918); assay: KINOMEscan; format: binding; settings: 1 μM of compound 4; read-out: POC
# T6 construct: purchased Eurofins DiscoverX Corporation
# STK33 = molecular target: T7, STK33 (Homo sapiens, UniProt Q9BYT3); assay: KINOMEscan; format: binding; settings: 1 μM of compound 4; read-out: POC
# T7 construct: purchased Eurofins DiscoverX (KINOMEscan service)
# MKNK2 = MKNK2 (Homo sapiens, UniProt Q9HBH9); assay: KINOMEscan; format: binding; settings: 1 μM of compound 4; read-out: POC
# CSNK1E = CSNK1E (Homo sapiens, UniProt P49674); assay: KINOMEscan; format: binding; settings: 1 μM of compound 4; read-out: POC
# FLT3(N841I) = molecular target: T8, FLT3(N841I) (Homo sapiens, UniProt P36888, N841I); assay: KINOMEscan; format: binding; settings: 1 μM of compound 4; read-out: POC
# T8 construct: purchased Eurofins DiscoverX Corporation
# NDR1 = NDR1 (Homo sapiens, UniProt Q15208); assay: KINOMEscan; format: binding; settings: 1 μM of compound 4; read-out: POC
# [3] = molecular target: JAK3(JH1domain-catalytic) (Homo sapiens, UniProt P52333); assay: KINOMEscan; format: binding; settings: 1 μM of compound 4; read-out: POC
# INSRR = INSRR (Homo sapiens, UniProt P14616); assay: KINOMEscan; format: binding; settings: 1 μM of compound 4; read-out: POC
# ZAP70 = molecular target: T9, ZAP70 (Homo sapiens, UniProt P43403); assay: KINOMEscan; format: binding; settings: 1 μM of compound 4; read-out: POC
# T9 construct: purchased Eurofins DiscoverX
# YANK3 = molecular target: T10, YANK3 (Homo sapiens, UniProt Q86UX6); assay: KINOMEscan; format: binding; settings: 1 μM of compound 4; read-out: POC
# T10 construct: purchased Eurofins DiscoverX
# PRKCE = PRKCE (Homo sapiens, UniProt Q02156); assay: KINOMEscan; format: binding; settings: 1 μM of compound 4; read-out: POC
# JNK1 = JNK1 (Homo sapiens, UniProt P45983); assay: KINOMEscan; format: binding; settings: 1 μM of compound 4; read-out: POC
# [4] = molecular target: JAK2(JH1domain-catalytic) (Homo sapiens, UniProt O60674); assay: KINOMEscan; format: binding; settings: 1 μM of compound 4; read-out: POC
# HUNK = HUNK (Homo sapiens, UniProt P57058); assay: KINOMEscan; format: binding; settings: 1 μM of compound 4; read-out: POC
# FLT3(R834Q) = molecular target: T11, FLT3(R834Q) (Homo sapiens, UniProt P36888, R834Q); assay: KINOMEscan; format: binding; settings: 1 μM of compound 4; read-out: POC
# T11 construct: purchased Eurofins DiscoverX Corporation
# RET(M918T) = molecular target: T12, RET(M918T) (Homo sapiens, UniProt P07949, M918T); assay: KINOMEscan; format: binding; settings: 1 μM of compound 4; read-out: POC
# T12 construct: purchased Eurofins DiscoverX Corporation (KINOMEscan screening service)
# CDC2L2 = CDC2L2 (Homo sapiens, UniProt Q9UQ88); assay: KINOMEscan; format: binding; settings: 1 μM of compound 4; read-out: POC
# CDK7 = CDK7 (Homo sapiens, UniProt P50613); assay: KINOMEscan; format: binding; settings: 1 μM of compound 4; read-out: POC
# TIE1 = molecular target: T13, TIE1 (Homo sapiens, UniProt P35590); assay: KINOMEscan; format: binding; settings: 1 μM of compound 4; read-out: POC
# T13 construct: purchased Eurofins DiscoverX Corporation
# EPHA4 = molecular target: T14, EPHA4 (Homo sapiens, UniProt P54764); assay: KINOMEscan; format: binding; settings: 1 μM of compound 4; read-out: POC
# T14 construct: purchased Eurofins DiscoverX (KINOMEscan service)
# NIK = molecular target: T15, NIK (Homo sapiens, UniProt Q99558); assay: KINOMEscan; format: binding; settings: 1 μM of compound 4; read-out: POC
# T15 construct: purchased Eurofins DiscoverX Corporation (KINOMEscan)
# CLK3 = CLK3 (Homo sapiens, UniProt P49761); assay: KINOMEscan; format: binding; settings: 1 μM of compound 4; read-out: POC
# T2 sequence (P00533 669-1210): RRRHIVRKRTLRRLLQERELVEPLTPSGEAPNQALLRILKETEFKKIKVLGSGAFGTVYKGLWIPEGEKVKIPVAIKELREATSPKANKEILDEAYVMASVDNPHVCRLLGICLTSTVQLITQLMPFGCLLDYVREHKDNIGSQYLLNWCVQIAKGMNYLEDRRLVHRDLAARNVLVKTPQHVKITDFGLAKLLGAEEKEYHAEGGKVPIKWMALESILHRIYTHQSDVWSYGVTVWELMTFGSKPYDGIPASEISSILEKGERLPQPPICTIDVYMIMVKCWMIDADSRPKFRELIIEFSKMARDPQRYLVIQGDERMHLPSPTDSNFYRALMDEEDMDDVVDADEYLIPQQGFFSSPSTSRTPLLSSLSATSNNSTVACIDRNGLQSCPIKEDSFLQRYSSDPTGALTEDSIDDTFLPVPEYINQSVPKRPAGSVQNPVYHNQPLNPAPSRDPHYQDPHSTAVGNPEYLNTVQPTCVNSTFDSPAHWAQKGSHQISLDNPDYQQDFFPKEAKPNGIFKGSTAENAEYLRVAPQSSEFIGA
# T3 sequence (P00533 669-1210 T790M/L858R): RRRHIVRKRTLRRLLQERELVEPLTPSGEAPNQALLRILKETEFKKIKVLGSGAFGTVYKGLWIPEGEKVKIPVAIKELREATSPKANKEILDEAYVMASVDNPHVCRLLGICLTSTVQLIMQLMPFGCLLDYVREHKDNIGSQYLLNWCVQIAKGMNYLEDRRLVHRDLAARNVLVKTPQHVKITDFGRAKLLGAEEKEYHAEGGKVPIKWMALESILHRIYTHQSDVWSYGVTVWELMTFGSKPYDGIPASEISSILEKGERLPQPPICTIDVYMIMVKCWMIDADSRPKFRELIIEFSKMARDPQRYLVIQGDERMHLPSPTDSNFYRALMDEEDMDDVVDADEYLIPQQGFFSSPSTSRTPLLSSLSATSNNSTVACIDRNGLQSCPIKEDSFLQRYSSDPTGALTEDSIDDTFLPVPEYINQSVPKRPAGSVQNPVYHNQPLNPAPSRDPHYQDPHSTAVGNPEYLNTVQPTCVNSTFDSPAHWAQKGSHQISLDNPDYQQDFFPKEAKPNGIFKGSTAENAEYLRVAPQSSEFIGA
# Chain of NDR1 (Q15208 whole entry): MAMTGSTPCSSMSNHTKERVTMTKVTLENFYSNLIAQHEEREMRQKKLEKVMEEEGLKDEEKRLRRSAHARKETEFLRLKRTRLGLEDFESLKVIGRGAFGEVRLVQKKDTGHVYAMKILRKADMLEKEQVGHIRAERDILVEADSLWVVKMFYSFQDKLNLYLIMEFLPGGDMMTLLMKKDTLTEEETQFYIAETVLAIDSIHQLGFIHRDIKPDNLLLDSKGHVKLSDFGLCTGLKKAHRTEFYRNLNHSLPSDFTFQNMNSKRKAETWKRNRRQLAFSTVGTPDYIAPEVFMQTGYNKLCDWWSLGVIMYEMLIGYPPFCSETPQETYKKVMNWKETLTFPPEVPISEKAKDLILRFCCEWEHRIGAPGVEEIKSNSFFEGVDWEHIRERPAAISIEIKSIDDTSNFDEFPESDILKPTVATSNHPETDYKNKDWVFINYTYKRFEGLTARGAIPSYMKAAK
# Chain of INSRR (P14616 27-1297): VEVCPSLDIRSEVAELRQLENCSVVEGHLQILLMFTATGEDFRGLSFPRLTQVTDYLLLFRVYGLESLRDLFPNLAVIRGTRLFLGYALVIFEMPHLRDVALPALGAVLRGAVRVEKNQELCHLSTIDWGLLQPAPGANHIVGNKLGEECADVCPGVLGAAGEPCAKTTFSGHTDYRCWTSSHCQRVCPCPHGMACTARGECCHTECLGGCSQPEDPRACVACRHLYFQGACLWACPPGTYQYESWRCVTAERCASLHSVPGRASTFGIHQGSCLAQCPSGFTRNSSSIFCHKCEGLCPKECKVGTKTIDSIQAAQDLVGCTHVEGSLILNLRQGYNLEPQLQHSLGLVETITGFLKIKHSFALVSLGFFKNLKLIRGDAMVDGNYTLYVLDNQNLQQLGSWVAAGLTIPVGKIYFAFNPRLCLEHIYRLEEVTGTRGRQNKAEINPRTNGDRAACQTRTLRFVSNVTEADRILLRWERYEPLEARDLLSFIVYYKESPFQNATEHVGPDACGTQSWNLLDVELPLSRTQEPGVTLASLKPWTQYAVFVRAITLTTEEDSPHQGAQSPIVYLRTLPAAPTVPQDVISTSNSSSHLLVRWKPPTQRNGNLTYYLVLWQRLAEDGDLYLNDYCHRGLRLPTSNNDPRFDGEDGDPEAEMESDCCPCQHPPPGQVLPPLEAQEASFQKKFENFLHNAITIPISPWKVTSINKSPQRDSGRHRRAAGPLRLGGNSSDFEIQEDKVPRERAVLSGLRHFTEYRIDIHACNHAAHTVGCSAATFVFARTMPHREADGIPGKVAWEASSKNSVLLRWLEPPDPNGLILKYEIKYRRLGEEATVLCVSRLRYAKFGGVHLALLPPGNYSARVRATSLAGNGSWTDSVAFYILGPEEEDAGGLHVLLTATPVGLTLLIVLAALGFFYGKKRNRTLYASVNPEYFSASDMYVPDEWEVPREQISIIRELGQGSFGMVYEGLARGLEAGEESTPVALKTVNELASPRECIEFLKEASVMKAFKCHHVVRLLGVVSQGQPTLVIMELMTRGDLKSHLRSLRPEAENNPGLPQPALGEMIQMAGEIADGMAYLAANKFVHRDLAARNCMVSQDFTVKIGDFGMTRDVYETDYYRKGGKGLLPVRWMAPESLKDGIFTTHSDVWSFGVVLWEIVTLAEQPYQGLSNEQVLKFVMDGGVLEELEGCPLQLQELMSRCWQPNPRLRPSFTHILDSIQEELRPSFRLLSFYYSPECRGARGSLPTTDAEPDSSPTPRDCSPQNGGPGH
# T12 sequence (P07949 29-1114 M918T): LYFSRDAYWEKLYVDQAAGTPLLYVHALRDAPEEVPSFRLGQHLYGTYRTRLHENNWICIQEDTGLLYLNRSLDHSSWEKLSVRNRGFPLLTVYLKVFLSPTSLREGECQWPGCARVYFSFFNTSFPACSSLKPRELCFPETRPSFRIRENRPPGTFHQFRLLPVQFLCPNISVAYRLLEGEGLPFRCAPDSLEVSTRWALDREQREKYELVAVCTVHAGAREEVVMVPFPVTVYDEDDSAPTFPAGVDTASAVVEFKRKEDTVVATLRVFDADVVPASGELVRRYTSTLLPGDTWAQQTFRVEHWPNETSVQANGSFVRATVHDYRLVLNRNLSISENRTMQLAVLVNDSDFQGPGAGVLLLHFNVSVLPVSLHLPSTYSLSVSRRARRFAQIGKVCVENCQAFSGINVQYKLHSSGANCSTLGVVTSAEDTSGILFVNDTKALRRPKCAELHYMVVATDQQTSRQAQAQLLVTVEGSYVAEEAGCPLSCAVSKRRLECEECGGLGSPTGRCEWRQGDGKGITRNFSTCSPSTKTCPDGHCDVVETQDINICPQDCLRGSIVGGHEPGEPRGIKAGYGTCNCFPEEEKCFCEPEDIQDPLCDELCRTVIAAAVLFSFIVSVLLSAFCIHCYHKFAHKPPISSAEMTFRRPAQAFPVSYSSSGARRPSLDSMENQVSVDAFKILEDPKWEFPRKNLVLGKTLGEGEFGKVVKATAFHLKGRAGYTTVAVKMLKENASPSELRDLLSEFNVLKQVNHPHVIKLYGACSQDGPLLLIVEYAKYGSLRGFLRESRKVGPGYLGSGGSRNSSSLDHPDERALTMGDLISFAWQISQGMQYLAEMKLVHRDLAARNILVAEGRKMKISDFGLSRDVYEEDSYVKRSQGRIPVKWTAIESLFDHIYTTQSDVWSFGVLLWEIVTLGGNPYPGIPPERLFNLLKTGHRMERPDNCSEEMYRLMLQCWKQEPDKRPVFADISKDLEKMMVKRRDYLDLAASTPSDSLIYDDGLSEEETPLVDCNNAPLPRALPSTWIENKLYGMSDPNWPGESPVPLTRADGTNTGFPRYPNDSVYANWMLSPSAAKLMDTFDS
# Chain of MLK2 (Q02779 whole entry): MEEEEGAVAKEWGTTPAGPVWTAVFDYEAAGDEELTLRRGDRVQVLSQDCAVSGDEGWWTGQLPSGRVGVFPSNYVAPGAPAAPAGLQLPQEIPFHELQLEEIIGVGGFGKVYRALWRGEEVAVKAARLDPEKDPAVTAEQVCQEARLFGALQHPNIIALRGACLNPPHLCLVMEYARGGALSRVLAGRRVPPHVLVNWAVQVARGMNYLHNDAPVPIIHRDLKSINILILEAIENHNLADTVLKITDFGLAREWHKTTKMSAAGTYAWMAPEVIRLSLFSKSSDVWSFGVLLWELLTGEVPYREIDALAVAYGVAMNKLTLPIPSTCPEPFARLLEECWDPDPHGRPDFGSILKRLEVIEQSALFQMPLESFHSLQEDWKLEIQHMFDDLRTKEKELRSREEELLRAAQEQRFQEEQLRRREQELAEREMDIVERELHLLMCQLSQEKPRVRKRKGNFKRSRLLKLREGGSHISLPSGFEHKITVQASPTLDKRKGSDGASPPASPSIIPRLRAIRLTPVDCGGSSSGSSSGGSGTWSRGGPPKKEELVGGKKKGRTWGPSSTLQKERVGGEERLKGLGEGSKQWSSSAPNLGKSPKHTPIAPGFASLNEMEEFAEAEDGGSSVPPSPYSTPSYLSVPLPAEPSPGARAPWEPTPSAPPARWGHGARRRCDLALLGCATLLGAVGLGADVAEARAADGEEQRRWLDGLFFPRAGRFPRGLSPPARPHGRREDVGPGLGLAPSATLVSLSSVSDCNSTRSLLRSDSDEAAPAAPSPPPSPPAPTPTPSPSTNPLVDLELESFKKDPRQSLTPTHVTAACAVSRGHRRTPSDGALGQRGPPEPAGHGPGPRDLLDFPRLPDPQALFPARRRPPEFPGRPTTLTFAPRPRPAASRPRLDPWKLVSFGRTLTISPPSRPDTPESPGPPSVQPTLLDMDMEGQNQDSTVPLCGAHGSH
smiles,measurement,setting,value
"C=CC(=O)Nc1ccc(OC)c(Nc2cc(-c3[nH]c(CC)nc3-c3cccc(NC(=O)c4cccc5c4NC(=O)c4ccccc4N5)c3)ccn2)c1 [Compound 4, N-(3-(5-(2-((5-Acrylamido-2-methoxyphenyl)amino)pyridin-4-yl)-2-ethyl-1H-imidazol-4-yl)phenyl)-11-oxo-10,11-dihydro-5H-dibenzo[b,e][1,4]diazepine-9-carboxamide]",remaining binding at 1 µM,[1],80%
same,remaining binding at 1 µM,MLK2,97%
same,Ki,EGFR WT,1200 ± 40 nM
same,kinact,EGFR WT,0.003 s⁻¹
same,kinact/KI,EGFR WT,2500 ± 10 M⁻¹ s⁻¹
same,Ki,"EGFR [T790M/L858R]; read-out: KI, LRTM",1600 ± 100 nM
same,kinact,"EGFR [T790M/L858R]; read-out: kinact, LRTM (converted)",0.00167 s⁻¹
same,kinact/KI,"EGFR [T790M/L858R]; read-out: kinact/KI, LRTM",1070 ± 40 M⁻¹ s⁻¹
same,remaining binding at 1 µM,EGFR(L858R + T790M),8.3%
same,remaining binding at 1 µM,[2],97%
same,remaining binding at 1 µM,HPK1,45%
same,remaining binding at 1 µM,STK33,100%
same,remaining binding at 1 µM,MKNK2,100%
same,remaining binding at 1 µM,CSNK1E,88%
same,remaining binding at 1 µM,FLT3(N841I),97%
same,remaining binding at 1 µM,NDR1,73%
same,remaining binding at 1 µM,[3],100%
same,remaining binding at 1 µM,INSRR,87%
same,remaining binding at 1 µM,ZAP70,97%
same,remaining binding at 1 µM,YANK3,96%
same,remaining binding at 1 µM,PRKCE,100%
same,remaining binding at 1 µM,JNK1,85%
same,remaining binding at 1 µM,[4],86%
same,remaining binding at 1 µM,HUNK,32%
same,remaining binding at 1 µM,FLT3(R834Q),100%
same,remaining binding at 1 µM,RET(M918T),99%
same,remaining binding at 1 µM,CDC2L2,91%
same,remaining binding at 1 µM,CDK7,49%
same,remaining binding at 1 µM,TIE1,100%
same,remaining binding at 1 µM,EPHA4,95%
same,remaining binding at 1 µM,NIK,100%
same,remaining binding at 1 µM,CLK3,74%
